# Experimental data published in patent publication US6160008A, “Pharmaceutical compositions comprising S-alkylisothiouronium derivatives” (priority 1996, dated 2000).
# “Also recorded” adds a separate entry of the source.
# Assays:
# [1] = tested on: acid-base balance and gas composition of mixed venous blood; test: Acid-base balance and gas composition of mixed venous blood in hemorrhagic shock (Table 7); format: in vivo, cats; settings: 5 mg/kg i.v.; for Bicarbonate ion content (HCO3 a) / Buffer bases (BBa) / Buffer bases shift (BBa) / Carbonic acid gas tension (PaCO2): mixed venous blood
# Method: The influence of S-ethylisothiouronium diethylphosphate on the major indices of the blood acid-base state (AAS) and gas content in hemorrhagic shock was studied at a dose of 5 mg/kg. The cats were narcotized intraperitoneally with pentobarbital sodium (nembutal) at a dose of 40 mg/kg. The blood loss was caused by blood-letting from the common carotid artery in an amount of 3.2% of the animal body mass, which approximately corresponds to 45-47% of the blood circulation volume. The blood-letting was carried out during 3-5 minutes. Tension characteristics of oxygen and carbon dioxide in arterial (PaO2, PaCO2) and mixed venous (PvO2, PvCO2) blood, pHa and pH were studied by Astrup micromethod. The hemoglobin content (Hb) was determined by the cianohemoglobin method. Bicarbonate ion content /HCO3 was calculated with the help of the Severinghause ruler. Calculations were carried out on the CM-1403-02 computer in the Forhtran language program. Indices of the acid-base balance and blood gas content were studied in the initial state, on the 30th minute after acute bleeding as well as on 2nd, 10th, 30th, and 60th minute after the medicine injection. The substance was injected singly intravenously on the 30th minute after the blood-letting.
# In the test group (n=6), S-ethylisothiouronium diethylphosphate was injected at a dose of 5 mg/kg.
# [2] = Biochemical tests of dog blood serum and general toxicity, 3-day experiment (Tables 10-14); format: in vivo; settings: 10 mg/kg i.v. daily, 3 days, dogs
# Method: In an experiment on dogs, the functional condition of the organism was estimated by biochemical tests, after the intravenous injection of a 10% solution S-ethylisothiouronium diethylphosphate, at a dose of 10 mg/kg daily. This experiment was conducted at the same time of the day. Blood was examined 1 hour after the administration of the preparation during 3 successive days and on the 4th, the 5th and on the 10th day after injection. The concentrations of total protein, of albumin, globulins, total cholesterol, and glucose in dog blood serum were determined by conventional methods. The total protein content was determined by biureth method, total cholesterol--by like method, glucose--by glucose-oxidase method.
# The general toxicity and biochemical parameters were determined in a 3-day experiment, where a 10% solution of the preparation was daily intravenously injectioned at a dose of 10 mg/kg.
# [3] = Biochemical indices of mice blood serum, acute experiment (Table 8); format: in vivo, F1 (C57B1×CBA); settings: 500 mg/kg i.v.; for Total protein: in g/L (unit assumed)
# Method: The effect of S-ethylisothiouronium diethylphosphate on body constituents was estimated in chronic and acute experiments. These experiments were conducted on F1 (C57B1×CBA) line mice and biochemical tests were made after a single administration of S-ethylisothiouronium diethylphosphate, injected intravenously at doses of 100 mg/kg (in the chronic experiment) and 500 mg/kg (in the acute experiment).
# In the acute experiment, blood was taken 30, 60 and 75 minutes after the administration of the medicine. In the chronic experiment (which lasted 30 days), blood was daily examined 1 hour after the injection. Terms of the study were 1, 7, 14, and 21 days. The concentrations of total protein, total cholesterol, and glucose in mice blood serum were determined by conventional methods. Total protein was determined by a biuret method, total cholesterol--by like method, glucose--by the glucose-oxidase method.
# Mouse blood was obtained after rapid decapitation. Tested material was sampled at the same time of the day and on the same season.
# Blood for serum was sampled into centrifuge test tubes, put into the thermostat for 30-40 minutes; the clot was outlined by a needle, then it was put into a refrigerator for 1 hour+4° C. After cooling it was centrifuged at 3000 RPM during 10-15 minutes. Serum with no signs of hemolysis was sampled into a clean tube. All quantitative indices of the blood biochemical characteristics were obtained by spectrophotometric measurements. Calibration curves to determine total protein and cholesterol were constructed in advance.
# [4] = tested on: acute arterial hypotension, caused by prazosin; test: Acute arterial hypotension caused by prazosin (Table 3); format: in vivo, cats; settings: for AP / HF / Respiratory contraction frequency: 5 mg/kg i.v. after prazosin 1 mg/kg
# Method: It was of interest to study the influence of S-ethylisothiouronium diethylphosphate the in case of hypotension caused by the injection of a known α1-adreno blocker, namely prazosin. Prazosin was injected singly intravenously at a dose of 1 mg/kg.
# [5] = Lung coefficient under hyperbaric oxygen (3 atm); format: in vivo, mice and rats; settings: for Lung coefficient (lung mass/body mass X100): hyperbaric oxygen
# Method: Animals were exposed to oxygen under increased pressure in a hyperbaric chamber <<Mana-2≤≤ for treatment of infants above 1 year, which was adjusted for the experiments on animals. The hyperbaric chamber design permitted to create excessive pressure up to 3 atm and to observe animal behavior from outside.
# The experiments were performed on males of F1 (CBAx57B1) mice line and on males of Wistar rat line. Animals were placed in the hyperbaric chamber in plastic boxes and the atmospheric air was replaced by oxygen. The period of compression-decompression was 10 minutes. The exposure of the animals to an oxygen pressure of 3 atm during a period of 2 hours caused only some increase in their motion activity. Further staying of rats and mice in those conditions led to a decrease in the motion activity, to asphyxia with short periods of excitement and cramps. The death of some animals was registered after 2.5-3 hours, 50% after 4 hours, and 75% of mice and 100% of rats were dead after 5 hours.
# When the influence of Difetur and Etyron was studied, the animals were exposed to an oxygen pressure of 3 atm during 5 hours if not otherwise specified. Preparations were injected 5-10 minutes before the session.
# After the session the dead animals were autopsied, their lungs were removed, and the index <<lung mass in gr./body mass in gr. X100>> (i.e. lung coefficient) was defined.
compound,measurement,setting,value
CCSC(=N)N [S-ethylisothiouronium diethylphosphate],Oxygen tension (PvO2),[1]; 10 min,41.866 ± 11.242
same,pHv,[1]; 10 min after injection,7.252 ± 0.011
same,Oxygen tension (PvO2),[1]; 30 min,40.533 ± 11.332
same,pHv,[1]; 30 min after injection,7.222 ± 0.016
same,Oxygen tension (PvO2),[1]; 60 min,27.783 ± 4.824
same,pHv,[1]; 60 min after injection,7.150 ± 0.130
same,Bicarbonate ion content (HCO3 a),[1]; 10 min,17.116 ± 1.576 mmol/L
same,Buffer bases (BBa),[1]; 10 min,34.500 ± 2.342 mmol/L
same,Buffer bases shift (BBa),[1]; 10 min,-8.500 ± 1.491 mmol/L
same,Carbonic acid gas tension (PaCO2),[1]; 10 min,40.516 ± 4.340 mm Hg
same,Bicarbonate ion content (HCO3 a),[1]; 30 min,16.150 ± 1.951 mmol/L
same,Buffer bases (BBa),[1]; 30 min,32.266 ± 3.254 mmol/L
same,Buffer bases shift (BBa),[1]; 30 min,-9.966 ± 1.388 mmol/L
same,Carbonic acid gas tension (PaCO2),[1]; 30 min,40.350 ± 4.611 mm Hg
same,Bicarbonate ion content (HCO3 a),[1]; 60 min,17.800 ± 2.162 mmol/L
same,Buffer bases (BBa),[1]; 60 min,33.833 ± 3.943 mmol/L
same,Buffer bases shift (BBa),[1]; 60 min,-11.266 ± 2.569 mmol/L
same,Carbonic acid gas tension (PaCO2),[1]; 60 min,55.533 ± 5.049 mm Hg
same,General toxicity and serum biochemistry in words,[2],wavy fluctuations with the tendency to decrease on the 4th and 5th day; also recorded: The level of albumins and globulins also changed in a wavy manner; also recorded: The level of total cholesterol and glucose had slight fluctuations which did not overstep the fluctuation limits of healthy dogs; also recorded: no evidence was found for intoxication or any significant deviation between the parameters studied and the initial data; also recorded: individual sensitivity of the animals to intravenous injection of the preparation was not found
same,Body mass,[3]; 30 min,24.8 ± 1.2 g
same,Glucose,[3]; 30 min,13.4 ± 2.6 mmol/L
same,Total cholestrol,[3]; 30 min,7.8 ± 1.2 mmol/L
same,Total protein,[3]; 30 min,99.0 ± 4.3
same,Serum biochemistry in words,[3]; 30 minutes,"an increase in the concentration of total protein, cholesterol and glucose was observed, which subsequently had the tendency for normalization"
same,Body mass,[3]; 60 min,26.1 ± 1.8 g
same,Glucose,[3]; 60 min,9.0 ± 0.8 mmol/L
same,Total cholestrol,[3]; 60 min,7.2 ± 1.6 mmol/L
same,Total protein,[3]; 60 min,89.4 ± 4.6
same,Body mass,[3]; 75 min,26.0 ± 0.5 g
same,Glucose,[3]; 75 min,6.6 ± 1.0 mmol/L
same,Total cholestrol,[3]; 75 min,5.4 ± 1.2 mmol/L
same,Total protein,[3]; 75 min,87.6 ± 3.8
same,AP,[4]; 2 min,135.0 ± 5.6 mm Hg
same,HF,[4]; 2 min,152.4 ± 9.4 per min.
same,Respiratory contraction frequency,[4]; 2 min,14.6 ± 3.9 min⁻¹
same,AP,[4]; 15 min,118.8 ± 10.3 mm Hg
same,HF,[4]; 15 min,146.4 ± 5.6 per min.
same,Respiratory contraction frequency,[4]; 15 min,12.4 ± 3.0 min⁻¹
same,AP,[4]; 30 min,116.3 ± 4.8 mm Hg
same,HF,[4]; 30 min,144.0 ± 5.0 per min.
same,Respiratory contraction frequency,[4]; 30 min,11.8 ± 2.3 min⁻¹
same,AP,[4]; 60 min,110.0 ± 7.4 mm Hg
same,HF,[4]; 60 min,135.6 ± 7.0 per min.
same,Respiratory contraction frequency,[4]; 60 min,11.0 ± 1.0 min⁻¹
same,AP increase,"[4]; 5 mg/kg i.v. after prazosin, 2nd minute",29 mm Hg
same,AP above the level on the 5th minute after blocker,"[4]; 5 mg/kg i.v. after prazosin, 15th minute",11.8%
same,AP above the level on the 5th minute after blocker,"[4]; 5 mg/kg i.v. after prazosin, 30th minute",9.4%
same,Effect under α1-adreno blockade in words,[4]; after prazosin,Statistically significant changes of HR and respiratory movement frequency were not observed; also recorded: increases AP also on the background of α1-adreno blockers though with a lower duration than without them; also recorded: retain its activity in conditions of alpha-adrenergic blockade
same,Lung coefficient (lung mass/body mass X100),[5]; 5 mg/kg,0.95±0.09
same,Lung coefficient (lung mass/body mass X100),[5]; 10 mg/kg,0.97±0.09
same,Lung coefficient (lung mass/body mass X100),[5]; 20 mg/kg,0.88±0.08
same,Lung protection in words,[5]; in vivo,considerable protective efficiency regarding the lung tissue
